Laboratory results taken from ChEMBL document CHEMBL4819056 (Bioorg Med Chem Lett, 2021).
Calls of active or inactive are those of the source. The rule behind the calls is not given here.

How the values were obtained:
[1] = molecular target: T1, Aldehyde dehydrogenase 1A1 (Homo sapiens, UniProt P00352); test: Inhibition of ALDH1A1 (unknown origin); format: single protein
T1 sequence (P00352 whole entry): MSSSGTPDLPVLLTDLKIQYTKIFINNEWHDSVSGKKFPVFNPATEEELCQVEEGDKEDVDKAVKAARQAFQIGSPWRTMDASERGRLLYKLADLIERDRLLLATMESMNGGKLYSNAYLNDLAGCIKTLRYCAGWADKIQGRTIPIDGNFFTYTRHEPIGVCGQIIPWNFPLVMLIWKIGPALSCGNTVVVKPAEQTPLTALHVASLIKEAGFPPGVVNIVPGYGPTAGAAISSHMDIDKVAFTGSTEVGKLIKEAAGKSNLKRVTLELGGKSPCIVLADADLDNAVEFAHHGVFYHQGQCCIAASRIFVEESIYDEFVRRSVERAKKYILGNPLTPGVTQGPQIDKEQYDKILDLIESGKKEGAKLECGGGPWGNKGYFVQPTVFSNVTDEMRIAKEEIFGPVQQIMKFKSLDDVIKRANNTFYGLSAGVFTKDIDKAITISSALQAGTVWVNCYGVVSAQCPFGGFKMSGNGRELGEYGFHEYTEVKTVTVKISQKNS

[2] = molecular target: T2, Aldehyde dehydrogenase, mitochondrial (Homo sapiens, UniProt P05091); test: Inhibition of ALDH2 (unknown origin); format: single protein
T2 sequence (P05091 whole entry): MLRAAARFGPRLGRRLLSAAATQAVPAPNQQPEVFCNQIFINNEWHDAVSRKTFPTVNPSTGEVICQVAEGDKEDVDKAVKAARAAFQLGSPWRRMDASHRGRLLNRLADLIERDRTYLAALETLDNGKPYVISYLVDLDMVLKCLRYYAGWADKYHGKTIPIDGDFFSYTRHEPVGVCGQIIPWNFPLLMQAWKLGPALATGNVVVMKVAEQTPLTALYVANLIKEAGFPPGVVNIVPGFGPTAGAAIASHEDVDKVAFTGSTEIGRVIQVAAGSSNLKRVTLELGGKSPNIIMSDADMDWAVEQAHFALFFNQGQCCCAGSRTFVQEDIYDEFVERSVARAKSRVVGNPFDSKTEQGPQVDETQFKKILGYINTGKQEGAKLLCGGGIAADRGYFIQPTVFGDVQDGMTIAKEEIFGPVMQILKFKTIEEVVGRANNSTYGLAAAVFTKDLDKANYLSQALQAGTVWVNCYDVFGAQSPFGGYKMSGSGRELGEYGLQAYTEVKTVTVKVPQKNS

[3] = molecular target: T3, Aldehyde dehydrogenase 1A1 (Homo sapiens) (UniProt P00352); test: Inhibition of ALDH1A1 (unknown origin) in presence of dithiothreitol
T3 sequence (whole entry): T1 sequence (P00352 whole entry)

Compound | IC50 ([1]; read-out: IC50) | IC50 ([2]; read-out: IC50) | inhibition [3] | IC50 [2] | IC50 [1]
CCN(Cc1ccc(C(=O)O)cc1)C(=S)SSC(=S)N(CC)Cc1ccc(C(=O)O)cc1 | 2950 nM | 99400 nM | – | – | –
CCN(CC)C(=S)SSC(=S)N(CC)CC | – | – | inactive | – | –
CCN(Cc1ccc(F)cc1)C(=S)SSC(=S)N(CC)Cc1ccc(F)cc1 | – | – | inactive | Not Active | –
Cl.Cl.NCCSSCCN [CYSTAMINE DIHYDROCHLORIDE] | > 100000 nM | – | – | Not Active | –
Cl.NCCS [CYSTEAMINE HYDROCHLORIDE] | – | – | – | Not Active | Not Active
CC(=O)NC(CS)C(=O)O (single isomer, unassigned) | – | – | – | Not Active | Not Active
CC(C)CN(CC(C)C)C(=S)SSC(=S)N(CC(C)C)CC(C)C | > 100000 nM | – | – | Not Active | –
CC(C)N(C(=S)SSC(=S)N(C)C)C(C)C | 2850 nM | > 100000 nM | – | – | –
S=C(SSC(=S)N1CCOCC1)N1CCOCC1 | 40 nM | 1430 nM | – | – | –
CCN(Cc1ccccc1)C(=S)SSC(=S)N(CC)Cc1ccccc1 | 270 nM | – | inactive | Not Active | –
S=C(SSC(=S)N1CCCCC1)N1CCCCC1 [BIS(PIPERIDINYLTHIOCARBONYL)DISULFIDE] | 50 nM | 1510 nM | – | – | –
S=C(SSC(=S)N(Cc1ccccc1)Cc1ccccc1)N(Cc1ccccc1)Cc1ccccc1 [BIS(DIBENZYLAMINETHIOCARBONYL)DISULFIDE] | > 100000 nM | – | – | Not Active | –
CCN(Cc1ccc(O)cc1)C(=S)SSC(=S)N(CC)Cc1ccc(O)cc1 | 210 nM | 10900 nM | inactive | – | –
CCCCN(CCCC)C(=S)SSC(=S)N(CCCC)CCCC | 5610 nM | 72600 nM | – | – | –
